Laboratory results from article PMC4682813, “The Aminosteroid Derivative RM-133 Shows In Vitro and In Vivo Antitumor Activity in Human Ovarian and Pancreatic Cancers” (PLoS ONE, 2015).
Read-outs that look alike come from different tables or passages of the source.

Columns and labels:
[1] = mouse, in vivo
Protocol: Ten ♀ Balb/c mice weighing approximately 23 g were separated in 3 groups. […] Mice in groups 1 and 2 received a total of 8 injections over 4 days and were sacrificed on day 8. Mice behavior was monitored during the whole duration of the experiment, and macroscopic observation of organs was performed upon necropsy.

[2] = tested on: OVCAR-3 tumors xenografted in nu/nu nude mice; test: OVCAR-3 xenografts in nude mice, propylene glycol-based vehicle (first part); format: in vivo; conditions: 60 mg/kg s.c. daily, propylene glycol:EtOH (92:8)
Excerpt: (§1) All in vivo experiments were approved by our Institutional Animal Care and Use Committee (Comités de protection des animaux de l’Université Laval) and carried out according to the guidelines of the Canadian Council on Animal Care. For xenografts, homozygous ♀ nu/nu nude mice (24–42 days old) were purchased from Charles River Inc. (Saint-Constant, QC, Canada) and housed (four to five) in vinyl micro-isolated ventilated cages, equipped with air lids, which were kept in laminar airflow hoods and maintained under pathogen-limiting conditions. During the acclimatization and study period, the animals were housed under a controlled environment at 22 ± 3°C, with 50 ± 20% relative humidity and light set at 12 h/day (light on at 07:15). Rodent food (Rodent diet #T.2018.15, Harlan Teklad, Madison, WI) and water were provided ad libitum. For nu/nu nude mice, food and water were sterilized prior to dispensing to the animals. Standard Balb/c mice were used for pharmacokinetic studies. Animals were anesthetized with isoflurane and killed by cervical dislocation.
Twenty-two ♀ nu/nu nude mice (22–24 g) were inoculated s.c. with 5×10^6 OVCAR-3 cells (in 0.1 mL of growth medium containing 30% Matrigel (BD Biosciences, Bedford, MA)) into both flanks in each mouse via a 2.5-cm long 22-gauge needle. After 11 days, tumor-bearing mice were randomly assigned to two groups of 11 mice each according to tumor size, i.e. a control group (n = 12 tumors) and a treated group (n = 15 tumors). RM-133 was administered s.c. daily at 60 mg/kg in 0.1 mL of propylene glycol:EtOH (92:8). Animals in the control group received 0.1 mL of vehicle alone. Tumor size was measured twice weekly using a caliper. Two perpendicular diameters (L and W) were measured, and the tumor area (in mm^2) was calculated using the formula (L/2) x (W/2) x π. Animals were weighed at various intervals during the experiment.

[3] = Plasma concentration of RM-133 with different vehicles; format: in vivo, Balb/c mice; conditions: female, Balb/c, mouse, sc, 120 mg/kg, single s.c. 120 mg/kg in 0.1 mL
[4] = tested on: PANC-1 tumors xenografted in nu/nu nude mice; test: PANC-1 xenografts in nude mice; format: in vivo; conditions: aqueous 0.4% methylcellulose:EtOH (92:8), 240 mg/kg s.c. twice a day every other day
Excerpt: as §1
Twenty female nu/nu nude mice (22–24 g) were inoculated with 5×10^6 PANC-1 cells per flank, in 30% matrigel-containing culture medium (0.1 mL). Ten days after inoculation, tumor-bearing mice were randomized in 2 groups of 10 mice each. […] Mice in the second (control) group (n = 18 tumors) received the vehicle only. As with previous xenografts, the tumor area was measured and mouse body weight monitored.

[5] = tested on: PANC-1 cells; test: MTS cell proliferation (viability) assay, PANC-1; format: cell-based; conditions: Homo sapiens, 72 h incubation
Protocol: Human ovarian (OVCAR-3) and pancreatic (PANC-1) cancer cells were purchased from the American Type Culture Collection (ATCC, Rockville, MD) and maintained in exponential growth in a 5% CO2 humidified atmosphere at 37°C. OVCAR-3 cells were routinely grown in RPMI-1640 medium (Sigma, St. Louis, MO) supplemented with 20% FBS, L-glutamine (2 mM), antibiotics (100 IU penicillin/mL and 100 μg streptomycin/mL), insulin (50 ng/mL), and estradiol (1 nM). For OVCAR-3 cell proliferation assays, the medium used was identical, except for the omission of estradiol. […]
The cell proliferation assay was performed with a colorimetric method using 3-(4,5-dimethylthiazol-2-yl)-5-(3-carboxymethoxyphenyl)2-(4-sulfophenyl)-2H-tetrazolium (MTS) (Cell Titer 96 Aqueous, Promega, Madison, WI). […] MTS is converted to water-soluble colored formazan by dehydrogenases present in metabolically active cells, and therefore, the MTS assay allows the immediate determination of absorbance of the soluble formazan directly in the cell medium and thus the measurement of viable cells. The A 490 of the medium was determined using a 96-well microplate reader INFINITE 200 PRO series (TECAN, Männedorf, Switzerland). The IC50 value of RM-133 was determined for each of the two cell lines using the GraphPad Prism 7 software (GraphPad Software, Inc., San Diego, CA).

[6] = tested on: CYP2D6; parameters: method as in PMID 25300820; conditions: low to moderate risk of drug-drug interactions; cited from earlier work
[7] = vehicle #7 sesame oil (89.7%) EtOH (7.8%) benzyl benzoate (1%) benzyl alcohol (1%) Tween 80 (0.5%)
[8] = vehicle #8 soya oil (92%) EtOH (8%)

Structure (SMILES): C#C[C@]1(O)CC[C@H]2[C@@H]3CC[C@H]4C[C@H](O)[C@@H](N5CCN(C(=O)[C@@H]6CCCN6C(=O)c6ccc7ccccc7n6)CC5)C[C@]4(C)[C@H]3CC[C@@]21C [RM-133]
- mice with slightly enlarged kidneys at necropsy ([1]; female, Balb/c, 24 h): 75%
- adverse effect on mice ([1]; 120 mg/kg): no adverse effect
- adverse effect on mice ([1]; 240 mg/kg): no adverse effect
- macroscopic observation of organs at necropsy ([1]; sc): organs did not show any detectable abnormality
- effect on body weight ([2]; 21-day treatment): no apparent effect on body weight
- day from which treated tumors were significantly smaller than control [2]: 15 days
- difference in tumor size between treated and control groups (tumor growth inhibition) ([2]; end of treatment (21 days)): 60%
- concentration at 3 h [3, 7]: 302 ± 7 ng/mL
- concentration at 12 h [3, 7]: 214 ± 8 ng/mL
- concentration at 3 h [3, 8]: 137 ± 2 ng/mL
- concentration at 12 h [3, 8]: 52 ± 1 ng/mL
- apparent toxicity during the experimental period or at necropsy [4]: no apparent toxicity
- body weight [4]: not affected
- reduction of PANC-1 tumor size progression ([4]; day 22): 75%
- reduction of PANC-1 tumor progression ([4]; end of treatment (40 days)): 63%
- IC50 [5]: 300 nM
- inhibition of CYP2D6 [6]: weak inhibition
